Literature values, collected in patent US20090022794A1, “Topiramate Tablet Formulation” (priority 2005, published 2009).
Values after ≈ are worked out from the molar mass of the structure shown.

What was measured:
[1] = relative humidity as high as 90%

SMILES | solubility in alkaline solutions, acetone, dimethylsulfoxide and ethanol (alkaline solutions, acetone, dimethylsulfoxide, ethanol) | solubility in water (water) | moisture picked up [1]
CC1(C)O[C@@H]2[C@@H](CO[C@@]3(COS(N)(=O)=O)OC(C)(C)O[C@@H]23)O1 [Topiramate, 2,3:4,5-Bis-O-(1-methylethylidene)-β-D-fructopyranose sulfamate] | soluble | 9800 µg/mL (≈ 28.9 mM) | 
OC[C@@H](O)[C@@H](O)[C@H](O)[C@H](O)CO [Mannitol] |  |  | less than 1%
